Reference: US20250090596A1, “MODULATING INFLAMMATION ASSOCIATED WITH FOREIGN BODY RESPONSE” (CRISPR Therapeutics AG, priority 2023, published 2025)
Values joined by “and” are separate entries in the source; they are usually repeats but may differ in a detail not shown here. Equal values may be shown once.

Assays:
[1] = format: in vivo, Rat (Rattus norvegicus)
Source text: Prior to implant, 30 male athymic nude rats (described in Table 19) were randomly assigned to three groups of ten animals each, and unbiased weight distribution was confirmed. […] At implant, each animal was surgically implanted subcutaneously with two VCTX test articles. The animals then continued to receive their respective chow. Group 1 and 3 animals received their respective chow for 12 weeks, while Group 2 animals only tolerated the tacrolimus-containing chow for 3 weeks. […] At 12 weeks, all animals were switched to standard rodent chow (Teklad 2920X, Envigo).

athymic rats [2] = test: Previous in vivo sensitivity studies of a similar combination product with unmodified cells; details: unmodified-cell combination product, drug in chow
Source text: (§1) The administration of the calcineurin inhibitors was achieved through formulation into the chow fed to the animals (athymic rats).

PEC-211 cells = test: In vitro differentiation of PEC-211 to stage 6 in presence of Tacrolimus, flow cytometry; format: cell-based, human; details: 0.1 μM, 10 days
Procedure: Evaluation of the PEC-211 cells in the presence of Tacrolimus was performed in vitro. Stage 4 Pancreatic progenitor PEC-211 cells were further differentiated to stage 6 to produce matured islet like cell population in presence of 0.1 μM of Tacrolimus for 10 days. Control PEC-211 cells were not treated with Tacrolimus.

VCTX211 implants = test: GSIS test of VCTX211 implants under calcineurin inhibitor chow; format: in vivo, Rat (Rattus norvegicus);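 further: athymic nude rats each carrying two subcutaneous VCTX211-loaded perforated delivery devices, fed calcineurin inhibitor or control chow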
Source text: Provided in this Example are in vivo efficacy evaluations of VCTX211 combination products (e.g., genetically modified cells loaded into a perforated delivery device) to assess potential sensitivity of exposure to calcineurin inhibitors. In this study, athymic nude rats each received two implants of compositions comprising genetically modified cells disclosed herein (e.g., VCTX211) each.
VCTX211 test articles (e.g., perforated delivery devices loaded with genetically modified cells disclosed herein) were first generated with pancreatic endoderm cell (PEC-211; e.g., comprising B2M KO and KI of TNFAIP3 and PD-L1; and KO of TXNIP and KI of MANF and HLA-E) aggregates derived from VCTX211 stem cell progenitor cells. To do so, the thaw and culture of PEC-211 aggregates was first performed in roller bottles. On the third day post-thaw, 20 μL aliquots of settled pellet volume (approximately 9×10^6 cells) were prepared and loaded into sterilized PD20 devices (e.g., perforated cell delivery device) to produce VCTX test articles. […] After formulation, test articles were maintained at room temperature in 10 mL storage tubes with media for 2 days.
Prior to implant, 30 male athymic nude rats (described in Table 19) were randomly assigned to three groups of ten animals each, and unbiased weight distribution was confirmed. […] At implant, each animal was surgically implanted subcutaneously with two VCTX test articles. The animals then continued to receive their respective chow. […] At 12 weeks, all animals were switched to standard rodent chow (Teklad 2920X, Envigo).

athymic rats [3] = details: rat, in vivo
Source text: as §1

[4] = individual animals, serum, 90 min after glucose
[5] = individual animals, serum, fasted

With `C=CC[C@@H]1/C=C(\C)C[C@H](C)C[C@H](OC)[C@H]2O[C@@](O)(C(=O)C(=O)N3CCCC[C@H]3C(=O)O[C@H](/C(C)=C/[C@@H]3CC[C@@H](O)[C@H](OC)C3)[C@H](C)[C@@H](O)CC1=O)[C@H](C)C[C@@H]2OC` [TAC, tacrolimus] the “animals died or euthanized in extremis” value ([1]; by 3 weeks, group of 10) was 3 animals, the “average loss of body weight” value ([1]; rat, in vivo) was 8% and the “effect on development or function of beta cells derived from the implants” value (athymic rats [2]) was “did not appear to affect”. The “effect on in vitro differentiation to islet cells” value (PEC-211 cells) was “did not affect”, the “CHGA-NKX6.1+ PDX1+ or- (Pancreatic Progenitor)” value (PEC-211 cells; Stage 6 cells, flow cytometry) was 16.9 and the “Total CHGA+” value (PEC-211 cells; Stage 6 cells, flow cytometry) was 76.3. For the same molecule, the “Total GCG+” value (PEC-211 cells; Stage 6 cells, flow cytometry) was 36.6, the “Total INS+” value (PEC-211 cells; Stage 6 cells, flow cytometry) was 70.4 and the “Total NKX6.1+” value (PEC-211 cells; Stage 6 cells, flow cytometry) was 48.7. For the same molecule, the “functional development of VCTX211 grafts, evaluated with GSIS tests, compared to control animals” value (VCTX211 implants; cyclosporine A 12 weeks, tacrolimus 3 weeks) was “not affected”, the “C-peptide, 16 Weeks, 60 min” value (VCTX211 implants; individual animals, serum, 60 min after glucose) was 1131 pM and 1798 pM and 720 pM and 1365 pM and 3073 pM and 700 pM and the “C-peptide, 12 Weeks, 90 min” value (VCTX211 implants; [4]) was 1933 pM and 1504 pM and 627 pM and 428 pM and 1178 pM and 1271 pM. For the same molecule, the “C-peptide, 16 Weeks, 90 min” value (VCTX211 implants; [4]) was 1312 pM and 1545 pM and 1271 pM and 1207 pM and 1782 pM and 1140 pM, the “C-peptide, 12 Weeks, Fast” value (VCTX211 implants; [5]) was 113 pM and 123 pM and 119 pM and 107 pM and 147 pM and 109 pM and the “C-peptide, 16 Weeks, Fast” value (VCTX211 implants; [5]) was 282 pM and 253 pM and 273 pM and 227 pM and 302 pM and 219 pM. The “dose-limiting finding preventing increased exposure” value (athymic rats [3]) was “toxicity resulting in inappetence and severe weight loss” and the “exposure levels versus target levels for prophylactic use in clinical organ transplantation” value (athymic rats [3]) was “below target levels”.
